Measurements from ChEMBL document CHEMBL1149459, “Partial structures of ketoconazole as modulators of the large conductance calcium-activated potassium channel (BK(Ca))” (Bioorg Med Chem Lett, 2006).

Assays:
[1] = target: T1, Large conductance calcium-activated potassium channel (Bos taurus) (UniProt Q28204+Q28067); test: Inhibition of large conductance calcium-activated potassium channel in bovine smooth muscle cells at 30 uM; assay type: functional, cell-based
[2] = target: T1, Large conductance calcium-activated potassium channel (Bos taurus); test: Inhibition of large conductance calcium-activated potassium channel in bovine smooth muscle cells at 10 uM; assay type: functional, cell-based

`Clc1ccc([C@@]2(Cn3ccnc3)OC[C@H](COc3ccccc3)O2)c(Cl)c1` was tested, and the inhibition [1] was 73%.
Compound `O=C(OC[C@H]1CO[C@](Cn2ccnc2)(c2ccc(Cl)cc2Cl)O1)c1ccccc1` has an inhibition [1] of 40%.
`Cc1ccc(S(=O)(=O)OC[C@H]2CO[C@](Cn3ccnc3)(c3ccc(Cl)cc3Cl)O2)cc1` gave an inhibition [1] of 2%.
In the case of `Clc1ccc([C@@]2(Cn3ccnc3)OC[C@H](COc3ccc(N4CCCCC4)cc3)O2)c(Cl)c1`, the inhibition [2] is reported as 80%.
`Clc1ccc([C@@]2(Cn3ccnc3)OC[C@H](COc3ccc(Br)cc3)O2)c(Cl)c1` was tested, and the inhibition [1] was 95%.
